BindingDB's records for doi:10.1021/bi9016186 (Weill Cornell Medical College, 2010)

Target: T1, Dihydrolipoyl dehydrogenase (Mycobacterium tuberculosis (strain CDC 1551 / Oshkosh), UniProt P9WHH8)
T1 sequence (P9WHH8 whole entry): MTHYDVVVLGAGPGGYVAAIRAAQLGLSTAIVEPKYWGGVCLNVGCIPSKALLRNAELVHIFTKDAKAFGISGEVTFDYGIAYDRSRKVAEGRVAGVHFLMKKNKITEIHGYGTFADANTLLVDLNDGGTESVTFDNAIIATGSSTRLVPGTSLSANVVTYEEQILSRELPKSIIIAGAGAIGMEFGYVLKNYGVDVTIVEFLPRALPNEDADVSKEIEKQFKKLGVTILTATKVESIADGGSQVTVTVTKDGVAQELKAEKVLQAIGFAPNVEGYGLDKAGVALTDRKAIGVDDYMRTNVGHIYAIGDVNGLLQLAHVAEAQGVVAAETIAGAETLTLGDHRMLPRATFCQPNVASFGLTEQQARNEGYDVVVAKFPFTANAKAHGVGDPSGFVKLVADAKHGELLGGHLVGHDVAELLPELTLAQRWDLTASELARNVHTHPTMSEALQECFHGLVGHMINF
Assay: Enzymatic Assay

SMILES	IC50
COc1ccc(C(=O)N2CCC3(CC2)C(=O)N(CC(=O)NCCc2ccc(C(F)(F)F)cc2)CN3c2ccccc2)c(OC)c1 [Triazaspirobenzyl, 4]	2 µM
COc1cccc(C(=O)N2CCC3(CC2)C(=O)N(CC(=O)NCCc2ccc(C(F)(F)F)cc2)CN3c2ccccc2)c1 [Triazaspirobenzyl, 8]	> 100 µM
